The test system of series [1] is A549. Put plainly: Antiproliferative activity against human A549 cells after 3 days. The class given is functional, cell-based. As to conditions: A549, 72 h.
The target of series [2] is Histone deacetylase. Description: Inhibition of human HDAC in HeLa nuclear extracts.
In series [3] the test system is A549. Description: Antiproliferative activity against human A549 cells at 1 mM after 3 days. The class given is functional. The conditions noted are these: A549, 72 h.
Series [4] concerns the target Histone deacetylase (Homo sapiens) (UniProt Q13547+O15379+Q9UBN7+Q92769+Q9UQL6+Q8WUI4+Q9BY41+Q96DB2+P56524+Q9UKV0+Q969S8). Put plainly: Inhibition of human HDAC in A549 cells assessed as increase in histone-H4 acetylation at 150 uM after 24 hrs by Western blot. The class given is cell-based. (A western blot detects proteins with antibodies after separation by electrophoresis.)

A short description of series [5]: Dissociation constant, pKa of the compound. The class given is physicochemical.

Active and inactive are the calls of the source. The rule behind the calls is not given here.

In general, IC50 refers to the concentration that inhibits the measured activity by half. A high value points to weaker potency. For orientation: inhibition means the drop in the measured response relative to a control, in per cent. By pKa is commonly meant the negative logarithm of the acid dissociation constant.

Regarding `Br.CS(=O)(=O)SCCN`, the IC50 stood at 154 µM in series [1] and 198 µM in series [2].
In the case of `CCCC(CCC)C(=O)NCCSS(C)(=O)=O`, the IC50 in series [2] was 17.5 µM.
As to `CCCC(CCC)C(=O)OCCSS(C)(=O)=O`, the IC50 was found to be 154 µM in series [1] and 9.6 µM in series [2].
The compound `CCCC(CCC)C(=O)O` [VALPROIC ACID] gave an inhibition at 1000 µM in series [3] of 24%. The compound also yielded a half-inhibitory concentration (IC50) in series [1] of over 1000 µM. Also, the outcome in series [4] was Active.
Regarding `Oc1ccc(-c2cc(=S)ss2)cc1`, the pKa in series [5] was found to be 7.86. The results for the IC50 in series [1] and in series [2] were 66 µM and 0.45 µM, respectively.
In the case of `CS(=O)(=O)SCCO`, the IC50 was found to be 161 µM in series [1] and 102 µM in series [2].
Turning to `CCCC(CCC)C(=O)Oc1ccc(-c2cc(=S)ss2)cc1`, the IC50 in series [1] was determined as 89 µM; in series [2] it was 56.4 µM.

The values are drawn from ChEMBL document CHEMBL1142340 (Bioorg Med Chem Lett, 2008).
